The results in this text go back to ChEMBL document CHEMBL1149752, “Antitumor agents, 135. Structure and stereochemistry of polacandrin, a new cytotoxic triterpene from Polanisia dodecandra” (1992).

The structures appear in SMILES notation. ≈ marks a conversion by molar mass, not a printed value.

What all share (assay type): functional
Conditions in all cases: read-out: ED50 (the source's name)

Assay [1] has as its system KB. The assay can be described thus: Cytotoxicity against human KB cells.
Assay [2] concerns P388. The assay can be described thus: Cytotoxicity against mouse P388 cells.
The test system of assay [3] is RPMI-7951. The assay can be described thus: Cytotoxicity against human RPMI7951 cells.
Assay [4] concerns HCT-8. Description: Cytotoxicity against human HCT8 cells.

Take `CC(C)(O)[C@@H]1CC[C@@](C)([C@H]2CC[C@]3(C)[C@@H]2[C@H](O)C[C@@H]2[C@@]4(C)[C@H](O)C[C@@H](O)C(C)(C)[C@@H]4CC[C@]23C)O1` [POLACANDRIN]: the EC50 in assay [1] came to 0.6 µg/mL (≈ 1.22 µM); in assay [2] it was 0.9 µg/mL (≈ 1.83 µM); in assay [3], 0.62 µg/mL (≈ 1.26 µM); in assay [4], 6.06 µg/mL (≈ 12.3 µM).
